Data on 23 molecules can be found in patent US12552767B2, “3-heteroaryl pyrrolidine and piperidine orexin receptor agonists” (Merck Sharp & Dohme LLC, priority 2020, dated 2026).

The target of the assay is T1, human OX2R (Homo sapiens, UniProt O43614).
T1 construct: expressed in transfected cells; host or cells: CHO (Chinese hamster ovary) cells, grown under G418 selection
T1 sequence (O43614 1-444): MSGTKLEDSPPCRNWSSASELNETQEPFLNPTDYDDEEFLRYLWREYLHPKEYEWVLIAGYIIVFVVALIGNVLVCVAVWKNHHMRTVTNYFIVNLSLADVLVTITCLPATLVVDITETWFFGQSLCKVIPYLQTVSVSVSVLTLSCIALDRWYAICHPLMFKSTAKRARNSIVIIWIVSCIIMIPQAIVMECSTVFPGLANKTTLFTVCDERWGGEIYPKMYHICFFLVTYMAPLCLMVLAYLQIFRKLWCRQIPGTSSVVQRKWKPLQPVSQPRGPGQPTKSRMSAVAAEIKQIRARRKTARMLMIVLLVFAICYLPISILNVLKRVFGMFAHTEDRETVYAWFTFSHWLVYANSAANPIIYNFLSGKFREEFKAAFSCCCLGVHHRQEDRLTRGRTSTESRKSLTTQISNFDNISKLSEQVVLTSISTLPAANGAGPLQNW
In words: IP-One (IPOne) orexin receptor agonist assay in CHO cells expressing human OX2R. Format: cell-based. To be noted: for EC50: CHO cells expressing human OX2R, IP-One IP-1 detection, 2 hours incubation, four parameter logistic fit, read-out: OX2R Potency, EC50; for % of reference agonist maximal effect: human OX2R, percentage of sample raw value/mean max effect (reference compound at 1 uM with 100% activity). Summed up: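 CHO cells stably expressing human OX2R were stimulated with compound (10-point ½-log dilutions) for 2 h at 37 °C. IP-1 accumulation was read by HTRF (IP-One, 665/620 nm). EC50 from a four-parameter fit; % effect relative to 1 μM reference agonist control.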

Turning to `C=CCNC(=O)N1CCC[C@H](c2cc[nH]n2)[C@@H]1CO[C@H]1CC[C@@H](C(C)C)CC1` (relative stereo) [Example 120, (CIS)-N-allyl-2-((((CIS)-4-isopropylcyclohexyl)oxy)methyl)-3-(1H-pyrazol-3-yl)piperidine-1-carboxamide], the concentration for a half-maximal effect (EC50) is 1.14 µM and the “% of reference agonist maximal effect” value was 97.8%.
Take `CC(C)NC(=O)N1CCC[C@H](c2cc[nH]n2)[C@@H]1CO[C@H]1CC[C@@H](C(C)C)CC1` (relative stereo) [Example 121, (CIS)-N-isopropyl-2-((((CIS)-4-isopropylcyclohexyl)oxy)methyl)-3-(1H-pyrazol-3-yl)piperidine-1-carboxamide]: the EC50 was determined as 1.54 µM and the “% of reference agonist maximal effect” value is 96.1%.
For the molecule `O=C(NC1COC1)N1CCC[C@H](c2cc[nH]n2)[C@@H]1CO[C@H]1CC[C@@H](c2ccccc2)CC1` (relative stereo) [Example 127, (CIS)-N-(oxetan-3-yl)-2-((((CIS)-4-phenylcyclohexyl)oxy)methyl)-3-(1H-pyrazol-3-yl)piperidine-1-carboxamide], the EC50 is 4.38 µM and the “% of reference agonist maximal effect” value came out at 72%.
As to `O=C(CC1COC1)N1CCC[C@H](c2cc[nH]n2)[C@@H]1CO[C@H]1CC[C@@H](c2ccccc2)CC1` (relative stereo) [Example 74, 2-(oxetan-3-yl)-1-((CIS)-2-((((CIS)-4-phenylcyclohexyl)oxy)methyl)-3-(1H-pyrazol-3-yl)piperidin-1-yl)ethan-1-one], the concentration for a half-maximal effect (EC50) is 3.28 µM and the “% of reference agonist maximal effect” value was 94.3%.
Regarding `COC(=O)N1CCC[C@H](c2[nH]ncc2C(F)(F)F)[C@@H]1CO[C@H]1CC[C@@H](c2ccccc2)CC1` (relative stereo) [Example 25, methyl (CIS)-2-((((CIS)-4-phenylcyclohexyl)oxy)methyl)-3-(4-(trifluoromethyl)-1H-pyrazol-5-yl)piperidine-1-carboxylate], the concentration giving a half-maximal response (EC50) was 0.879 µM and the “% of reference agonist maximal effect” value amounted to 92.8%.
The like results for `COC(=O)N1C[C@@H](C)C[C@H](c2ccn[nH]2)[C@@H]1CO[C@H]1CC[C@@H](c2ccccc2)CC1` (racemic) [Example 39, (+/−) methyl (2R,3S,5S)-5-methyl-2-((((CIS)-4-phenylcyclohexyl)oxy)methyl)-3-(1H-pyrazol-5-yl)piperidine-1-carboxylate] were, in that order, 1.98 µM and 94.8%.
The like results for `CC(C)[C@H]1CC[C@@H](OC[C@H]2[C@@H](c3cc[nH]n3)CCCN2C(=O)C2CCC2)CC1` (relative stereo) [Example 79, cyclobutyl((CIS)-2-((((CIS)-4-isopropylcyclohexyl)oxy)methyl)-3-(1H-pyrazol-3-yl)piperidin-1-yl)methanone] were, in that order, 5.31 µM and 83.2%.
The like results for `COC(=O)N1CCCC(c2nc(O)sc2Cl)C1COC1CCC(c2ccccc2)CC1` (single isomer, unassigned) [Example 68, Methyl 3-(5-chloro-2-hydroxythiazol-4-yl)-2-(((4-phenylcyclohexyl)oxy)methyl)piperidine-1-carboxylate] were, in that order, 6.98 µM and 27.6%.
As to `CC#CCCOC(=O)N1CCC[C@H](c2cc[nH]n2)[C@@H]1CO[C@H]1CC[C@@H](c2ccccc2)CC1` (relative stereo) [Example 106, pent-3-yn-1-yl (CIS)-2-((((CIS)-4-phenylcyclohexyl)oxy)methyl)-3-(1H-pyrazol-3-yl)piperidine-1-carboxylate], the half-maximal effective concentration (EC50) is 5.08 µM and the “% of reference agonist maximal effect” value was 71.4%.
Turning to `O=C(OCCF)N1CCCC(c2ccn[nH]2)C1CO[C@H]1CC[C@@H](c2c(F)ccc(F)c2F)CC1` (relative stereo) [Example 30, 2-Fluoroethyl 3-(1H-pyrazol-5-yl)-2-((((CIS)-4-(2,3,6-trifluorophenyl)cyclohexyl)oxy)methyl)-piperidine-1-carboxylate], the EC50 was determined as 2.92 µM and the “% of reference agonist maximal effect” value stood at 87.6%.
The like results for `O=C(OCC(F)(F)F)N1CCCC(c2ccn[nH]2)C1CO[C@H]1CC[C@@H](c2c(F)ccc(F)c2F)CC1` (relative stereo) [Example 31, 2,2,2-Trifluoroethyl 3-(1H-pyrazol-5-yl)-2-((((CIS)-4-(2,3,6-trifluorophenyl)cyclohexyl)-oxy)methyl)piperidine-1-carboxylate] were, in that order, 7.44 µM and 72.7%.
For `COC(C)(C)C(=O)N1CCC[C@H](c2cc[nH]n2)[C@@H]1CO[C@H]1CC[C@@H](c2ccccc2)CC1` (relative stereo) [Example 87, 2-methoxy-2-methyl-1-((CIS)-2-((((CIS)-4-phenylcyclohexyl)oxy)methyl)-3-(1H-pyrazol-3-yl)piperidin-1-yl)propan-1-one], in that order: 8.81 µM and 78.7%.
The like results for `CCNC(=O)N1CCCC(c2nc[nH]n2)C1CO[C@H]1CC[C@@H](C(C)C)CC1` (single isomer, unassigned) [Example 63, N-ethyl-2-((((CIS)-4-isopropylcyclohexyl)oxy)methyl)-3-(1H-1,2,4-triazol-3-yl)piperidine-1-carboxamide] were, in that order, 0.334 µM and 100.2%.
In the case of `CN1C[C@H](COC(=O)N2CCC[C@H](c3cc[nH]n3)[C@@H]2COC2CCC(c3ccccc3)CC2)OCC1=O` (stereo partly drawn) [Example 94, ((R)-4-methyl-5-oxomorpholin-2-yl)methyl (CIS)-2-((((CIS)-4-phenylcyclohexyl)oxy)methyl)-3-(1H-pyrazol-3-yl)piperidine-1-carboxylate], the EC50 worked out at 6.64 µM and the “% of reference agonist maximal effect” value turned out to be 93.5%.
For `CCNC(=O)N1CCCC(c2ccn[nH]2)C1CO[C@H]1CC[C@@H](c2c(F)ccc(F)c2F)CC1` (stereo partly shown) [Example 33], in that order: 0.0472 µM and 100.3%.
Turning to `O=C(Oc1cccnc1)N1CCC[C@H](c2cc[nH]n2)[C@@H]1CO[C@H]1CC[C@@H](c2ccccc2)CC1` (relative stereo) [Example 101, pyridin-3-yl (CIS)-2-((((CIS)-4-phenylcyclohexyl)oxy)methyl)-3-(1H-pyrazol-3-yl)piperidine-1-carboxylate], the EC50 was determined as 2.51 µM and the “% of reference agonist maximal effect” value was 77.7%.
For `CC(C)[C@H]1CC[C@@H](OC[C@H]2[C@@H](c3cc[nH]n3)CCCN2C(=O)C2CC2(C)C)CC1` (relative stereo) [Example 81, (2,2-dimethylcyclopropyl)((CIS)-2-((((CIS)-4-isopropylcyclohexyl)oxy)methyl)-3-(1H-pyrazol-3-yl)piperidin-1-yl)methanone], in that order: 5.65 µM and 70.0%.
The like results for `COC(=O)N1CCC[C@@H](c2n[nH]cc2C(C)C)[C@H]1CO[C@H]1CC[C@@H](c2ccccc2)CC1` (single isomer, unassigned) [Example 50] were, in that order, above 10 µM and 5.2%.
Take `CO[C@@H](C)COC(=O)N1CCC[C@H](c2cc[nH]n2)[C@@H]1CO[C@H]1CC[C@@H](c2ccccc2)CC1` [Example 119, (S)-2-methoxypropyl (CIS)-2-((((CIS)-4-phenylcyclohexyl)oxy)methyl)-3-(1H-pyrazol-3-yl)piperidine-1-carboxylate]: the EC50 is 9.69 µM and the “% of reference agonist maximal effect” value is 50.6%.
The like results for `COC(=O)N1CCC[C@H](c2nc(O)ccc2C)[C@@H]1CO[C@H]1CC[C@@H](c2ccccc2)CC1` (relative stereo) [Example 66, methyl (CIS)-3-(6-hydroxy-3-methylpyridin-2-yl)-2-((((CIS)-4-phenylcyclohexyl)oxy)methyl)piperidine-1-carboxylate] were, in that order, 0.808 µM and 98.8%.
Turning to `COC(=O)N1CCCC(c2nc(O)sc2Cl)C1COC1CCC(c2ccccc2)CC1` (single isomer, unassigned) [Example 67, Methyl 3-(5-chloro-2-hydroxythiazol-4-yl)-2-(((4-phenylcyclohexyl)oxy)methyl)piperidine-1-carboxylate], the EC50 amounted to 0.227 µM and the “% of reference agonist maximal effect” value came out at 99.9%.
For the molecule `O=C(C1CC1)N1CCC[C@H](c2cc[nH]n2)[C@@H]1CO[C@H]1CC[C@@H](c2ccccc2)CC1` (single isomer, unassigned) [Example 20, cyclopropyl((CIS)-2-((((CIS)-4-phenylcyclohexyl)oxy)methyl)-3-(1H-pyrazol-3-yl)piperidin-1-yl)methanone], the EC50 was determined as 0.682 µM and the “% of reference agonist maximal effect” value worked out at 97.4%.
For the molecule `CC(C)[C@H]1CC[C@@H](OC[C@H]2[C@@H](c3cc[nH]n3)CCCN2C(=O)C2CC2)CC1` (relative stereo) [Example 75, cyclopropyl((CIS)-2-((((CIS)-4-isopropylcyclohexyl)oxy)methyl)-3-(1H-pyrazol-3-yl)piperidin-1-yl)methanone], the EC50 turned out to be 3.63 µM and the “% of reference agonist maximal effect” value was 95.7%.
